Reference: patent US5798362A, “Quinazolinyl-amino derivatives having α-antagonist activity” (Recordati S.A. Chemical and Pharmaceutical Company, priority 1994, dated 1998)
Structures can show the parent of a compound that is named as a salt. Where two headings read alike, the source gives them in different places.

Tests used:
[1] = system: dyastolic arterious pressure; assay: Antihypertensive activity in catheterized awake spontaneously hypertensive rat (SHR); format: in vivo; details: oral administration, read-out: DE25 (dose which induces a lowering of 25% of the dyastolic arterious pressure)
Protocol: (§1) Male Sprague Dawley rats (Crl: CD' BR) of 175-300 g b.w., male spontaneously hypertensive rats, Okamoto strain, female Albino Swiss mice [Crl:CD-1 (ICR) BR] 20-30 g b.w., were obtained from Charles River, Italy. Animals were housed with free access to food and water and maintained on forced light-dark cycle at 22°-24° C. until the day of experiments.
(§2) Evaluation of the antihypertensive activity in chateterized spontaneously hypertensive rat (SH) chronic awake and of the hypotensive activity in the normotensed anesthethized rat
The SH rats are surgically prepared at least 24 hours before the test. The surgical operation was performed under neuroleptoanalgesia or barbituric anesthesia; the right carotid artery was exposed and a chateter suitable in dimensions and material was introducted in the vessel up to the aortic arch. […]
For endovenous administrations a second chateter similar to the one above described was introduced during the surgical operation into the left jugular vein and brought to the exterior as the arterious chateter. […] About 30' before administration the arterious pressure was monitored and the registration of the parameters was performed after administration at different times according to the test protocol. […]

[2] = biological target: α1-receptors ([3H]prazosin); assay: [3H]Prazosin binding (α1-receptors), rat cerebral cortices; details: rat cerebral cortex, 0.35 nM [3H]prazosin, 25° C., 30 min; read-out: [3H] prazosine IC50
Protocol: Rat cerebral cortices were homogenized in 50 volumes of original wet weight of ice-cold 50 mM Tris-HCl buffer pH 7.4. The homogenates were centrifuged at 48,000 × g for 10 minutes, and the pellets were resuspended in the same volume of ice-cold buffer, centrifuged and resuspended two more times. […] The incubations were terminated by rapid filtration through Whatman GF/B, filters using a Brandel cell harvester and the filters were washed with 3×3 ml of ice-cold buffer. The radioactivity retained on the filters was determined by liquid scintillation counting. Data analysis The inhibition of specific binding of the radioligands by the tested drugs was analyzed to estimate the IC50 value by using the non-linear curve-fitting program Allfit [A. De Lean et al., Am. J. Physiol.

[3] = in vivo; details: mouse
Protocol: 20-30 g b.w., were obtained from Charles River, Italy. Animals were housed with free access to food and water and maintained on forced light-dark cycle at 22°-24° C. until the day of experiments.
The acute toxicity of synthesized compounds was evaluated in female Albino Swiss mice after intraperitoneal and oral administration. Four logarithmic scaled doses of the compounds were dissolved or suspended in 0.5% Methocel and administered in a volume of 10 ml/kg to groups of 4 mice/dose. Mortality was recorded 7 days after the administration.

[4] = system: dyastolic arterious pressure; assay: Hypotensive activity in the normotensed anesthetized rat; format: in vivo; details: iv, endovenous administration, read-out: DE25 (dose which induces a lowering of 25% of the dyastolic arterious pressure)
Protocol: as §1, §2
Normotensed rats with were prepared surgically at the moment of the test, after anesthesia with pentobarbital. Suitable chateters were introduced in the left carotid artery and the right jugular vein. The arterious chateter end was connected to a pressure transductor which sends the signal to a polygraph preamplifier. About 30' before the administration the arterious pressure was monitored and the registration of the parameters was performed after the administration, at various time according to the test protocol.
For the endovenous administration the administered volum was 0.5-1 ml/Kg, while for the oral administration was 5 ml/Kg.
Evaluation of data: in so far as the espression of the results is concerned, the pressure data were reported as percentage of the variation in respect to the base values.

[5] = biological target: T1, cloned α1A adrenoceptor (Bos taurus, UniProt P18130); assay: Radioligand binding, cloned α1A adrenoceptor (previously α1C) expressed in COS-7 cells; details: bovine brain α1A in COS-7 cells; mean of 2-4 experiments in triplicate, agreed within 10%
T1 construct: expressed in transfected cells; host or cells: COS-7 (transient)
T1 sequence (P18130 1-466): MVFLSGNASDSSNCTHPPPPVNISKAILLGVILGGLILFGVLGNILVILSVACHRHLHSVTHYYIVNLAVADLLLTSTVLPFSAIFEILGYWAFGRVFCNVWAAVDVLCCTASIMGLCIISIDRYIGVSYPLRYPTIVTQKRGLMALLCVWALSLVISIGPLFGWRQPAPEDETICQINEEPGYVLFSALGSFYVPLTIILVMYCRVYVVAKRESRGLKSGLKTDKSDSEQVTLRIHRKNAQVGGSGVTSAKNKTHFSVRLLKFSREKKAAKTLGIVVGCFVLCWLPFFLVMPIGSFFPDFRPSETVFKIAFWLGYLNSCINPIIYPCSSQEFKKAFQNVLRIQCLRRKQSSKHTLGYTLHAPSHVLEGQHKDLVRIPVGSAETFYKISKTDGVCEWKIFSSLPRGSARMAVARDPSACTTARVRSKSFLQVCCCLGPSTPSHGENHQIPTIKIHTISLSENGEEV
Protocol: (§3) Cloned animal α1 adrenoceptors
(§4) COS-7 cells were grown as monolayers in Dulbecco's modified Eagle's medium (DMEM), supplemented with 25 mM glucose, 10% bovine calf serum, 100 units/ml penicillin and 100 μg/ml streptomicyn sulfate.
(§5) Transfected cells from colture flask were washed two times with 5 ml phosphate buffered saline (PBS), scraped into 2 ml of 5 mM Tris-HCl, pH 7.4, containing 5 mM EDTA and 10 μM leupeptin, and lysed by sonication. The cell lysates were pelleted at 30000xg for 15 min at 4° C. and washed three times with 10 ml ice-cold 50 mM Tris-HCl, pH 7.4. Membranes were resuspended in 50 mM Tris-HCl, pH 7.4, containing 10 μM pargyline and 0.1% ascorbic acid, quickly frozen and stored at -70° C. until utilized.
(§6) Radioligand binding assays
Non-specific binding was determined in presence of 100 μM phentolamine. The reaction mixture was incubated for 30 min at 25° C. and then stopped by the addition of ice cold Tris-HCl buffer and rapid filtration through 0.2% polyethyleneimine pretreated Whatman GF/B fiber filters using Brandel cell harvester. The filters were then washed with 3×3 ml of ice-cold buffer and the radioactivity retained on the filters was counted in 10 ml of Filter Count (Packard) in a liquid scintillation spectrometer with a counting efficacy of 40%.
The inhibition of specific binding of the radioligands by the tested drugs was analyzed to estimate the IC50 value by using the non-linear curve-fitting program Allfit [A. De Lean et al., Am. J. Physiol.

[6] = biological target: T2, cloned α1D adrenoceptor (Rattus norvegicus, UniProt P23944); assay: Radioligand binding, cloned α1D adrenoceptor (previously α1A/D) expressed in COS-7 cells; details: rat brain α1D in COS-7 cells; mean of 2-4 experiments in triplicate, agreed within 10%
T2 construct: expressed in transfected cells; host or cells: COS-7 (transient)
T2 sequence (P23944 1-561): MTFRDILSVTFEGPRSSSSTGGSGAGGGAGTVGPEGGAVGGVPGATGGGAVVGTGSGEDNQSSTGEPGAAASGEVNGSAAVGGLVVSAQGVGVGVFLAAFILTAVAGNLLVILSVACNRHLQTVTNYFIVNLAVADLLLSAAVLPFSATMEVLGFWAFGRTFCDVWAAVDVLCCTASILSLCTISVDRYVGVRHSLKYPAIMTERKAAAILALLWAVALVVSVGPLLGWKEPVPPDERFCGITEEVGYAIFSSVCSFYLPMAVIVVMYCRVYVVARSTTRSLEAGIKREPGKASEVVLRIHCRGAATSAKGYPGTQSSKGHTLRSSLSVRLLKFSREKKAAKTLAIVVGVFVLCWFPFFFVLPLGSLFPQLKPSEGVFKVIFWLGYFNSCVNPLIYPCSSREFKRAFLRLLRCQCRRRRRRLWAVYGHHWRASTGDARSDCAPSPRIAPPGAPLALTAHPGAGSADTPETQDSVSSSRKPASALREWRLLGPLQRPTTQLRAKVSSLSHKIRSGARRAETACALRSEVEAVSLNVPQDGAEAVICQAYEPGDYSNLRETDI
Protocol: as §3, §4, §5, §6
(§7) Non-specific binding was determined in presence of 100 μM phentolamine. […] The filters were then washed with 3×3 ml of ice-cold buffer and the radioactivity retained on the filters was counted in 10 ml of Filter Count (Packard) in a liquid scintillation spectrometer with a counting efficacy of 40%.
(§8) The inhibition of specific binding of the radioligands by the tested drugs was analyzed to estimate the IC50 value by using the non-linear curve-fitting program Allfit [A. De Lean et al., Am. […]

[7] = biological target: T3, cloned α1B adrenoceptor (Mesocricetus auratus, UniProt P18841); assay: biochemical; format: binding; details: syrian hamster α1B in COS-7 cells; mean of 2-4 experiments in triplicate, agreed within 10%
T3 sequence (P18841 1-515): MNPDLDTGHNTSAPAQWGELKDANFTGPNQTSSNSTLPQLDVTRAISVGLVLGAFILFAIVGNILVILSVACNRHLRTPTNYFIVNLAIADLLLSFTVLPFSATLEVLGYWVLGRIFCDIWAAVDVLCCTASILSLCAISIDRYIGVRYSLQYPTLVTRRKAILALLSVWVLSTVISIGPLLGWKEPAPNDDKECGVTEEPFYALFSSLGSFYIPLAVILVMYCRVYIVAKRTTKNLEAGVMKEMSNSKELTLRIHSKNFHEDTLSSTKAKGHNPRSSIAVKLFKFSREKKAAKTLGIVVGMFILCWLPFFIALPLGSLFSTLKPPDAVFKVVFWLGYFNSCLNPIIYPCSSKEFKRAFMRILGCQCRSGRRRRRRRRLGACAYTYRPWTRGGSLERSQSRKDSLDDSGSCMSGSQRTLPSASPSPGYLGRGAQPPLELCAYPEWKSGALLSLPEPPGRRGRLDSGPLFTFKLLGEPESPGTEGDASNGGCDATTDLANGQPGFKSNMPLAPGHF
Protocol: as §3, §4, §5, §6, §7, §8

[8] = ip, mice, intraperitoneal, mortality 7 days after administration, read-out: DL50 i.p.
[9] = mice, oral, mortality 7 days after administration, read-out: DL50 p.o.

For `COc1cc2nc(N3CCN(C(=O)CC(=O)c4ccccc4)CC3)nc(N)c2cc1OC` [Example 13, 4-Amino-6,7-dimethoxy-2-[4-(2-benzoylacetyl)-1-piperazinyl]-quinazoline], the ED25 [1] was 2.42 mg/kg, the IC50 [2] was 7 nM and the LD50 at 168 h [3, 8] was 142 mg/kg. The LD50 at 168 h [3, 9] was greater than 3000 mg/kg and the ED25 [4] was 0.056 mg/kg.

Compound `COc1cc2nc(N3CCN(C(=O)COc4c(OC)cccc4C(C)C)CC3)nc(N)c2cc1OC.Cl` [Example 24, 4-Amino-6,7-dimethoxy-2-{4-[(2-methoxy-6-isopropylphenoxy)acetyl]-1-piperazinyl}-quinazoline hydrochloride] has an IC50 [5] of 17.2 nM, an IC50 [2] of 28 nM and an LD50 at 168 h ([3]; ip) of 268 mg/kg. It also gave an LD50 at 168 h ([3]; po) greater than 3000 mg/kg.

In the case of `COc1ccc(CC2c3cc(OC)c(OC)cc3CCN2c2nc(N)c3cc(OC)c(OC)cc3n2)cc1OC` (centres unmarked) [Example 33, 4-Amino-6,7-dimethoxy-2-[1-(3,4-dimethoxybenzyl)-6,7-dimethoxy-1,2,3,4-tetrahydroisoguinolin-2-yl]-quinazoline hydrochloride hydrate], the IC50 [5] is reported as 950 nM, the IC50 [6] is reported as 1550 nM and the IC50 [2] is reported as 287 nM. It also gave an LD50 at 168 h [3, 8] of 884 mg/kg, an LD50 at 168 h [3, 9] greater than 3000 mg/kg and an IC50 [7] of 206 nM.

Compound `COc1cc2nc(N3CCN(C(=O)CC(O)c4ccccc4)CC3)nc(N)c2cc1OC` (centres unmarked) [Example 14, 4-Amino-6,7-dimethoxy-2-[4-(3-hydroxy-3-phenylpropionyl)-1-piperazinyl]-quinazoline] has an IC50 [2] of 19 nM, an LD50 at 168 h [3, 8] greater than 1000 mg/kg and an LD50 at 168 h [3, 9] greater than 3000 mg/kg.

Work on `COc1cc2nc(N3CCN(C(=O)CCCNC(=O)OCc4ccccc4)CC3)nc(N)c2cc1OC` [Example 6, 4-Amino-6,7-dimethoxy-2-{4-[(4-benzyloxycarbonylamino)butirryl]-1-piperazinyl}-quinazoline hydrochloride . 1.5 H2 O] yielded an IC50 [2] of 29 nM, an LD50 at 168 h [3, 8] greater than 1000 mg/kg and an LD50 at 168 h [3, 9] greater than 3000 mg/kg.

`COc1cc2nc(N3CCN(C(=O)C4CCCO4)CC3)nc(N)c2cc1OC` (centres unmarked) [Terazosin, reference compound] showed an IC50 [5] of 66.6 nM and an IC50 [6] of 106 nM.
